The text below walks through data of patent US9764047B2, “Method for obtaining novel derivatives of naphthalene for the in vivo diagnosis of alzheimer's disease” (CENTRO DE NEUROCIENCIAS DE CUBA, priority 2009, dated 2017).

Series [1] in a line: Determination of partition coefficients (n-octanol/water, radiotracer method). Type of series: physicochemical. An excerpt: Chemical compounds that cross the blood brain barrier (BBB) should be neutral and lipophilic and also, have a low molecular weight. The partition coefficient (P) provides a measure of the compound lipophilicity and is closely related to drug distribution in the body, its absorption in tissues and its route of excretion (Meade et al. in Curr. Opin. Neurobiol., 2003, 13, 5, 597-602). One method used to determine this parameter is that of radiotracers which relates the radiotracers activity or number of counts in the octanol organic phase with that of the aqueous phase. In this invention the compounds labeling is carried out using the Iodogeno method (^131I).
Determination of Partition Coefficients: A solution of 9 (20 μL), prepared as described in example 10, was added to a mixture of 3 ml of n-octanol and 3 ml of distilled water. After stirring and leaving to stand the mixture, aliquots of 20 μL from each phase were taken to determine the radiometric distribution ratio by an activity meter (CRC 35R, Capintec Inc.). This procedure was repeated to the radiopharmaceutical of ^99mTc-ECD as reference, which is used for cerebral perfusion studies.

Series [2] in a line: Biodistribution in rats after intravenous injection (gamma camera imaging). The format is in vivo, male Wistar rats. The procedure: The arrow indicates the detection of the compound in the region of interest (maximum uptake at about 3 min.).
Animal Studies: A solution of 9 15 MBq ([…]), prepared as described above, was administered to male Wistar rats (160 g, n=3) through the lateral tail vein. Then, images were taken every 15 seconds, for 30 min. (120 images) with a gamma camera (Medis Nucline TH22, Hungary), with a peak centered at 360 keV and a window of ±25%. The image processing was performed on a processing station Segami (USA).

Like-named read-outs stand apart in the source and are kept apart here.

`CCOC(=O)[C@H](C[S-])[N-]CCN[C@@H](C[S-])C(=O)OCC.[O-2].[Tc]` [^99mTc-ECD, ^99mTc-ethylcysteinate diethyl ester, reference compound]: in series [1], the Partition coefficient is 40.6 and the logP turned out to be 1.6.
`O=C(O)CCNC(=O)CCC(=O)Nc1cccc2ccccc12` gave a melting point of 180.5 to 181.8 °C.
For `O=C(O)CCC(=O)Nc1cccc2ccccc12` [Compound 2, 4-(1-naphthylamino)-4-oxobutanoic acid], the melting point was 167 to 169 °C.
For the compound “N1-(2-aminoethyl)-N4-(1-naphthyl) succinimide-^131I [Compound 9]”, in series [1] (n-octanol/distilled water, radiometric distribution ratio), the Partition coefficient stood at 0.54. The logP in series [1] (octanol/water) is −0.27. The “time of maximum uptake in the region of interest” value in series [2] (131I-labeled compound) is listed as “about 3 min”. Further, the “excretion of the radioiodinated compound” value in series [2] (after maximum uptake) is reported as “slow excretion”.

The logP is a log measure of how a compound divides between an organic and an aqueous phase. Low readings indicate lower lipophilicity, high ones higher lipophilicity. In general, melting point refers to the temperature, or range, at which the solid turns liquid.
